Consider one sequence from paper PMC10606834, “Is the Neuropeptide PEN a Ligand of GPR83?” (International Journal of Molecular Sciences, 2023).

For the assay, the system named is GPR83 and GPR83del with Gα16 (HEK293). The assay can be described thus: Intracellular calcium mobilization, Gα16-transfected HEK293 cells. The note with it: 10 µM PEN, 100 µM carbachol, 100 µM ATP, Fluo4-AM fluorescence, duplicate, repeated at least two times. Format: cell-based, human. The procedure:
As activation of many GPCRs is coupled to calcium mobilization from intracellular stores, GPR83 was probed for ligand-dependent calcium release. Wild-type HEK293 cells and HEK293 clones overexpressing either full-length GPR83 or the N-terminal deletion variant GPR83del were exposed to buffer or one of two independent synthesis batches (PEN #1 and PEN #2) of the neuropeptide PEN, while calcium indicator fluorescence was recorded. […] Calcium release was also tested in a second cell line, osteosarcoma U2OS cells, using various stably expressing clones. […] Therefore, HEK293 cells transfected with Gα16 were employed to investigate a potential GPR83-dependent calcium mobilization with PEN. […] A number of GPCRs show ligand-independent basal calcium activity. However, in an experiment comparing basal calcium levels in wild-type HEK293 cells and in HEK293 clones overexpressing four different variants of GPR83, they were not found to be different (Figure 2D).
Figure 2 Investigation of ligand-dependent and ligand-independent intracellular calcium mobilization. (A) Wild-type HEK293 cells and HEK293 cell clones overexpressing either GPR83 or the deletion variant GPR83del were incubated with either buffer or the specified ligand (10 µM PEN or co mix = 100 µM carbachol, 100 µM ATP, 40 µM dimaprit, or 50 µM ionomycin). (B) Calcium indicator fluorescence intensity traces over 60 s of various U2OS cell clones overexpressing untagged or HA-tagged GPR83 or the deletion variant GPR83del before and after the addition of buffer or ligand (co mix as in (A) or 50 µM ionomycin or 10 µM PEN). […]
Cells were seeded at 50,000 cells/well in a poly-D-lysine coated 96-well black well/clear bottom plate (BD Falcon, Franklin Lakes, NJ, USA) and cultured overnight. […] Fluorescence was recorded with the fluorescence imaging plate reader CellLux (Perkin Elmer, Waltham, MA, USA) simultaneously in all wells at an excitation wavelength of 488 nm and emission wavelength of 510 nm in 1.5 s intervals over a period of 4 min. Fluorescence data were generated in duplicate, and experiments were repeated at least two times.

Consider “AADHDVGSELPPEGVLGALLRV [PEN, batch #1 synthesized, batch #2 purchased from Phoenix Pharmaceuticals]”, for which the calcium signal entry is given as “PEN did not”.
